Non-standard residues stand in square brackets, D forms with d. Residues, ends and D or L forms follow the SMILES beside them. No end group written: not given here.
How the values were obtained:
HepSK1 cells = experiment: In vitro transfection (luciferase expression); type: cell-based, human; conditions: Hep-SK 1 (non-ASGPR), 100 μM ligand, 1 μg DNA
Experimental: (§1) For in vitro cell testing of the galactosylated peptides, the following cell lines were used: HepG2 (ATCC, Manassas, Va.): Hepatocarcinoma cell line expressing the asialyglycoprotein (ASGP) receptor. […] These two cell lines were tested for the presence of the ASGP receptor by westen blotting with an anti-asialoglycoprotein receptor antibody from Calbiochem (Nottingham, UK). This confirmed the presence of the receptor in HepG2 cells and the absence of the receptor from Hep-SK1 cells (data not shown).
(§2) The formulations were incubated with the cells for 4 h, at which point the formulations were aspirated and fresh serum containing complete medium was added to the cells. Cells were harvested 48 h post transfection and were assayed for total cell protein expression and luciferase reporter gene expression. […] Thus, multifunctional targeting factors such as galactose-Elan094 (SEQ ID NO:6) can increase transfection activity over a single fimctional targeting factor.
In vitro cell transfections were carried out as described supra in a number of cell types. […] The results for two different cell types, a human liver cell line (HepSK1) and a human breast cell line (MDA-MB-231), are shown in Tables 7 and 8.

HepG2 cells = experiment: In vitro transfection (luciferase expression); type: cell-based; conditions: for transfection with DC-Chol:DOPE LPDs containing ligand: HepG2 (ASGPR bearing), 100 μM ligand, 1 μg DNA
Experimental: 16-24 hr prior to transfection, 5×10^4 cells (MDA-MB-231, LL/2 or HepG-2 (ATCC, Manassas, Va.)) in 500 μl/well of appropriate media (ATCC catalog describes appropriate media for each cell type) containing 10% FBS were seeded in a 48 well plate (Costar, Coming, N.Y.) and incubated overnight at 37° C. in 5% or 10% CO2. The following day, the media was removed and replaced with 500 μl of fresh serum-free media. […] After transfection, luciferase activity was assayed as described (Promega Luciferase Assay Kit, Cat. No. E1501, Madison, Wis.). Briefly, the cell culture media was removed and replaced by fresh media containing 10% FBS, and the cells were incubated at 37° C. in 5% or 10% CO2 for a further 48 h. Each well was washed with 1 ml PBS 0.095 M pH7.4 (Biowhittaker, Walkersville, Md.) and suspended in 200 μl of 1× luciferase reporter buffer (RLB) (Promega, Madison, Wis.). The cells were then subject to 3 cycles of freeze/thaw at −70° C./37° C., respectively. Cells were harvested and spun for 10 min at 14,000 rpm. 20 μl of the supernatant was assayed for luciferase activity by addition of 100 μl of luciferase substrate (Promega, Madison, Wis.), followed by a 10 sec incubation time at room temperature before luminescence relative units were measured using a Berthold (Aliquippa, Pa. autolumat B953 luminometer. The total protein concentration per sample was determined using a commercial kit of Coomassie plus dye (Pierce, Rockford, Ill.).
as §1, §2

MDA-MB-231 cells = experiment: Competition assays of ligand-mediated transfection; type: cell-based, human; conditions: 0.1 μg DNA/well; for effect of 1000-fold excess of free peptide on DSPE-PEG5K-RGD mediated transfection: 10 mol % DSPE-PEG5K-RGD LPD
Experimental: Three competitions assays were performed using MDA-MB-231 cells in order to assess specificity of transfection-mediated-[…] (SEQ ID NO:10) or DSPE-PEG5K-RGD (SEQ ID NO:11). Transfections were performed as described above except that the culture media was supplemented with free LHRH or RGD peptides, or antibody against the LHRH or the integrin receptor as competition agents. 10 mol % pegylated lipid or targeting factor-pegylated lipid conjugate was used for each experiment.
The first competition assay was performed using 1 μg DNA/well. This DNA concentration required a high concentration of free LHRH to achieve a 100 fold excess of free LHRH which was toxic for the cells. Similarly, with the RGD formulation, this DNA concentration required a high concentration of free RGD in order to achieve 100 fold excess of free RGD (3.25 μl of dansyl-labeled RGD ((Integrated Biomolecule Corporation, Tucson, Ariz.) from a solution at 5 mg/ml in H2O) which was toxic for the cells.
In order to decrease LHRH associated toxicity, a second competition assay was performed using 0.1 μg DNA/well (FIGS. 6A and 6B). 0.1 μg DNA/well corresponds to 862.62 ng DSPE-PEG5K-LHRH (SEQ ID NO:10) or 168.6 ng of LHRH/well using a 12 nmol:1 μg lipid:DNA ratio and 10 mol % DSPE-PEG5K-LHRH (SEQ ID NO:10) in the total lipids in the formulation. Transfections were performed as described above. The second competition assay was performed using 17.5 μg/well (5 μl) of anti-LHRH receptor F1G4, and 15 μg/well (50 μl) of anti-LHRH receptor A9E4 from Biogenesis (Kingston, N.H.). The appropriate isotype match antibody (17.5 μg/well), anti-CD3 IgG1K (Pharmingen, San Diego, Calif.), was used as a control. Additionally, a 100-fold and 1000 fold excess of LHRH was tested as a competition agent: the media was supplemented with 6.5 μl or 65 μl of a stock solution of 2.5 mg/ml of [D-Trp]-LHRH from Sigma (St. Louis, Mo.). Moreover, in this particular experiment, 2 anti-LHRH receptor polyclonal serums were tested: 5 μl/well of a rabbit serum anti-LHRH receptor (Biogenesis, Kingston, N.H.) and 50 μl/well sheep serum anti-LHRH receptor (Biogenesis, Kingston, N.H.). The corresponding volumes of control serum were used as an isotype control. Control serums were purchased from Sigma (St. Louis, Mo.).
LPDs were also directly incubated with an anti-LHRH antibody or an isotype control (Anti-IgG) antibody before addition of LPDs to cells in order to block the LHRH molecule on the LPD surface (data not shown). Briefly, 6.67 μl of 1/10 diluted DSPE-PEG5K-LHRH LPDs at 150 μg DNA/ml were mixed with 50 μl of mouse anti-LHRH antibody or control (Dako Corporation, Carpinteria, Calif.) and incubated for 1 h at room temperature prior to transfection as described above. […]

[1] = MTLP peptide stability in serum over time (HPLC-UV); type: in vitro ADME, mouse; conditions: 37° C.; for stability in mouse serum (recovery by HPLC-UV): 1 mg/mL peptide + equal volume mouse serum, 10-120 min
Experimental: The MTLP peptide solutions were prepared at 1 mg/mL and 20 μL aliquots placed in tubes. To one set of tubes an equal volume of mouse serum was added and to a second set 0.9% saline solution was added as negative a control. The tubes were incubated at 37° C. A control and a sample tube were removed at various timepoints (10, 30, 60 and 120 min) and any reaction quenched using 70:30 acetonitrile:water (160 μL). Each quenched sample was then analysed by HPLC-UV at 220 nm with a C18 column (5 μm, 300Å, 250×4.6 mm id) for 45 minutes. Mobile phase A was 10:90 acetonitrile: 0.1% trifluoroacetic acid in water and mobile phase B was 0.1% trifluoroacetic acid in acetonitrile.

KB cells [2] = experiment: In vitro transfection (luciferase expression); type: cell-based; conditions: 1 μg DNA/well
Experimental: The following day, the media was removed and replaced with 500 μl of fresh serum-free media.

[3] = biological target: LHRH receptor on MDA-MB-231, SKOV3-IP1 and H-69 cells (human) (UniProt P30968); experiment: cell-based or functional assay
KB cells [4] = experiment: Effect of lysomotrophic agent on PPAA-mediated transfection; type: cell-based; conditions: added half an hour prior to LPD
Experimental: Lysomotrophic agent, either chloroquine (an anti-malarial drug, weak base protonated in endosome) or bafilomycin A (a specific ATPase inhibitor which reduces the amount of protons entering the endosome), capable of preventing endosomal acidification, were added in varying amounts to the transfection mixture half and hour prior to LPD addition to the cells.

Sequence of LHRH receptor on MDA-MB-231, SKOV3-IP1 and H-69 cells (human) (P30968 whole entry): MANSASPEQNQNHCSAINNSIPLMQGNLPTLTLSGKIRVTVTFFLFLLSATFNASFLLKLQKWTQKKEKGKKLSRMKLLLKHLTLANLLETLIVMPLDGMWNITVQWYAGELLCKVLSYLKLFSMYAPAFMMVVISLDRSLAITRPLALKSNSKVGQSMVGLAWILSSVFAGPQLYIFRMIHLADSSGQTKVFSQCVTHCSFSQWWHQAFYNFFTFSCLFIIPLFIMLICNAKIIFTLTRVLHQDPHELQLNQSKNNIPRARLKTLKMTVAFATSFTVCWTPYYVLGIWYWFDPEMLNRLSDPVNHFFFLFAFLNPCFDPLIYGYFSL

des-Pro-KKAAAVLLPVLLAAS-Galactose [Elan094G]
transfection with DC-Chol:DOPE LPDs containing ligand (HepSK1 cells): no increase in transfection | dose giving optimal transfection (HepG2 cells; DC-chol:DOPE LPDs, dose titration (FIG. 14)): 50 µM | transfection with DC-Chol:DOPE LPDs containing ligand (HepG2 cells): Increased transfection

GRGDSP
effect of 1000-fold excess of free peptide on DSPE-PEG5K-RGD mediated transfection (MDA-MB-231 cells): inhibition of transfection activity

CC(C)C[C@@H](NC(=O)[C@@H](CC(C)C)NC(=O)[C@H](NC(=O)[C@H]1CCCN1C(=O)[C@@H](CC(C)C)NC(=O)[C@@H](CC(C)C)NC(=O)[C@H](NC(=O)[C@@H](C)NC(=O)[C@@H](C)NC(=O)[C@@H](CCCCN)NC(=O)[C@@H](CCCCN)NC(=O)[C@H](N)CCCCN)C(C)C)C(C)C)C(=O)N[C@H](C)C(=O)N[C@H](C)C(=O)N1CCC[C@@H]1C(=O)O [ZElan207, H2N-kkkaavllpvllaap] (H-[dK][dK][dK][dA][dA][dV][dL][dL][dP][dV][dL][dL][dA][dA][dP]-OH; C-terminus assumed)
stability in mouse serum (recovery by HPLC-UV) [1]: stable in mouse serum up to 2 h

LHRH: free LHRH used as competition agent, [D-Trp]-LHRH from Sigma (QHWSYGLRPG; not fully specified (residue 1, C-terminus); ends and bridges not checked; also: D-Trp, position not given here)
effect of 1000-fold excess of free LHRH on DSPE-PEG5K-LHRH mediated transfection (MDA-MB-231 cells; 10 mol % DSPE-PEG5K-LHRH LPD): clear inhibition of transfection activity

RRRRRRRH
increase in transfection activity when formulated with CHEMS:DOPE compared to peptide-compacted DNA alone (KB cells [2]): 2 fold

GRGESP
effect of 1000-fold excess of free peptide on DSPE-PEG5K-RGD mediated transfection (MDA-MB-231 cells): did not inhibit transfection activity

H2N-KKKAAAVLLPVLLAAPREDL (H-KKKAAAVLLPVLLAAPREDL) [ZElan094R]
transfection with DC-Chol:DOPE LPDs containing ligand (HepSK1 cells): no increase in transfection | transfection with DC-Chol:DOPE LPDs containing ligand (HepG2 cells): Increased transfection

[D-Trp]-LHRH from Sigma (from UniProt P01148 24-33) (peptide)
luciferase expression in MDA-MB-231 cells after transfection with LPDs containing 10 mol % DSPE-PEG5K-LHRH, free LHRH in the medium as competition agent [3]: 1000 fold

CCN(CC)CCCC(C)Nc1ccnc2cc(Cl)ccc12 (stereo not shown) [Chloroquine, chloroquine]
effect on PPAA-mediated transfection (KB cells [4]; 1600 nM): blocked PPAA-mediated transfection

CO/C1=C\C(C)=C\[C@@H](C)[C@@H](O)[C@@H](C)C/C(C)=C/C=C/[C@H](OC)[C@@H]([C@@H](C)[C@@H](O)[C@H](C)[C@@]2(O)C[C@@H](O)[C@H](C)[C@@H](C(C)C)O2)OC1=O [Bafilomycin A, bafilomycin A]
effect on PPAA-mediated transfection (KB cells [4]; 10 ng/well): appeard to block PPAA-mediated transfection

GRGDNP
effect of 1000-fold excess of free peptide on DSPE-PEG5K-RGD mediated transfection (MDA-MB-231 cells): inhibition of transfection activity

H-KKKAAAVLLPVLLAAP [ZElan094]
stability in mouse serum (recovery by HPLC-UV) [1]: degrades in mouse serum over 2 hr | ligand still detectable at 30 minutes following incubation in mouse serum [1]: up to 60% | start of degradation in mouse serum [1]: > 10 min

S(Galactose)KKAAAVLLPVLLAAP [GElan094]
transfection with DC-Chol:DOPE LPDs containing ligand (HepSK1 cells): no increase in transfection | transfection with DC-Chol:DOPE LPDs containing ligand (HepG2 cells): Increased transfection

Source: patent US20050025821A1, “Lipid-comprising drug delivery complexes and methods for their production” (priority 2001, published 2005)
